# According to patent publication US20240050524A1, “DELIVERY OF ABETA VARIANTS FOR AGGREGATION INHIBITION” (Baylor College of Medicine, priority 2020, published 2024):
# “Also recorded” adds a separate entry of the source.
# System: γ-secretase
# Test: Dependence of Aβ release from transfected N2a cells on γ-secretase activity (IP/immunoblot of conditioned media)
# Assay type: cell-based, murine
# Details: 'KK' minimal construct; 0.1 or 1 nM
# Method: Collection of Aβ peptides from N2a conditioned media. N2a cells were grown in 6 well plates using Dulbecco's modified Eagle's medium (DMEM) (#12-604F, VWR) supplemented with […] penicillin/streptomycin and 10% fetal bovine serum until approximately 90% confluent. […] Twenty-four hours later, cells were washed with 1×Dulbecco's PBS, and a serum-reduced medium consisting of DMEM and 0.2% fetal bovine serum was added before the cells were returned to 5% CO2 at 37° C. Conditioned media was harvested 24 hr later and centrifuged at 10,000 rpm for 5 min at 4° C. (2 ml/well×3 wells per IP reaction). To test the dependence of Aβ release on γ-secretase activity, cells were transfected as above, with the subsequent media replacement including 0.1 or 1 nM of LY411575 (#SML0506, Sigma). Supernatants were collected and supplemented with protease inhibitors (#5892970001, Sigma) and 0.01% NaN3 (#S2002, Sigma) to prevent proteolytic degradation.
# Aβ IP from conditioned media for immunoblot. Protein G Dynabeads (50 μl, #10003D, Fisher) were loaded with mouse anti-Aβ antibody 6E10 (1 ug, #SIG-39320, BioLegend, San Diego, CA) for 1 hr at RT. […] Antibody binding was detected using […] secondary antibody conjugated with IRDye, diluted 1:20,000 in block (#26-32210, LI-COR, Lincoln, NE). Blots were imaged with an Odyssey Fc Imager and analyzed with Image Studio software (LI-COR).
compound,measurement,value
C[C@H](NC(=O)[C@@H](O)c1cc(F)cc(F)c1)C(=O)N[C@@H]1C(=O)N(C)c2ccccc2-c2ccccc21 [LY411575],block of Aβ secretion into the media,blocked release of variant Aβ into the media in a concentration-dependent manner; also recorded: blocked in a dose-dependent manner
